Reference: paper PMC13242511, “Disrupting Notch signalling by a small molecule inhibiting dihydroorotate dehydrogenase activity” (Scientific Reports, 2026)
Several values for one entry are separate records, joined by “and”; a condition that tells them apart may be missing. Identical values can stand only once. Entries after “also recorded” stand apart in the source; their conditions may differ. Like-named read-outs stand apart in the source and are kept apart here.

Assays:
[1] = test system: Notch signalling; assay: Notch reporter assay (12xCSL firefly luciferase / renilla luciferase, HEK293T Notch1ΔE reporter cell line clone #A1-11); assay type: cell-based; design: AUC Notch: scale not given here; conditions: for Bottom (Emax): Emax indicated independent from assay constraints, in % (unit assumed); for activity: 1,25µM; for AUC Notch: area under the 14-point dose-response curve; for reporter signal in % of DMSO: inhibitor controls, Supplemental Fig. 2A; for Notch assay: overview in comparison to compound C, Supplemental Fig. 9
Procedure, shortened: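 Compounds at two-fold concentration in 10 µl medium were brought to one-fold by adding 10 µl holding 4000 Notch reporter cells (clone #A1-11) per well of a 384-well plate. After 24 h, Promega dual-GLO firefly and renilla luciferase were read on a SpectraMaxi3. Dose-response curves were fitted with a log(inhibitor) vs. response variable-slope model.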

[2] = target: γ-secretase complex (Homo sapiens, UniProt P49768); assay: APP-C99 counter assay (GSI reporter assay); assay type: cell-based; design: AUC APP: scale not given here; conditions: for remaining activity at 10 µM / remaining activity at 25 µM / remaining activity at […]: 24 h, APP-C99 counter assay, read-out: 3p-DR in % of DMSO counter; for remaining activity at […]: 1,25µM; for AUC APP: area under the 14-point dose-response curve, replicates averaged; for APP assay: overview in comparison to compound C, Supplemental Fig. 9
Procedure, shortened: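 γ-secretase activity reported via APP cleavage driving firefly luciferase, normalized to renilla. After 24 h transfection then 24 h compound exposure, signals were read (0.1 s integration). Triplicate dose–responses fitted by variable-slope four-parameter model for IC50; area under curve also derived.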

[3] = Homo sapiens, HEK-293T, 14p Notch assay DR, bottom constrained to Emax of positive control DAPT, read-out: approximated IC50
[4] = Homo sapiens, HEK-293T, 14p Notch assay DR, log10 value, bottom constrained to Emax of positive control DAPT, read-out: approximated LogIC50 (converted)
[5] = Homo sapiens, HEK-293T, 10 µM, primary screen, 24 h, unit from Fig. 2 legend, read-out: Primary screen at 10 µM (Notch reporter signal)
[6] = Homo sapiens, HEK-293T, 10 µM, three-dose confirmation screen, unit from Fig. 2 legend, read-out: Hit confirmation at 10 µM (Notch reporter signal)
[7] = Homo sapiens, HEK-293T, 10µM, 3-point DR confirmation screen, Notch reporter assay, read-out: inhibitor ratio in % of DMSO in 3 point DR
[8] = Homo sapiens, HEK-293T, 10 µM, sheet conf vs counter 10 µM, same values as 3-point DR confirmation screen, read-out: Confirmation screen
[9] = Homo sapiens, HEK-293T, 25µM, 3-point DR confirmation screen, Notch reporter assay, read-out: inhibitor ratio in % of DMSO in 3 point DR
[10] = Homo sapiens, HEK-293T, 25 µM, Notch reporter 3-point dose-confirmation assay, sheet "conf vs counter 25 µM", read-out: Confirmation screen
[11] = Homo sapiens, HEK-293T, 3-point DR confirmation screen, Notch reporter assay, read-out: inhibitor ratio in % of DMSO in 3 point DR
[12] = 14p APP assay DR, bottom constrained to Emax of positive control LY-411575
[13] = Homo sapiens, HEK-293T, 14-point dose-response, Fig. 4, read-out: approximated IC50, Notch reporter assay
[14] = 9p dose response, AUCs averaged when replicates available
[15] = 14p dose response, AUCs averaged when replicates available

Structure (SMILES) | Bottom (Emax) ([1]; 14p Notch assay DR) | IC50 [1, 3] [µM] | IC50 [1, 4] [µM] | AUC Notch ([1]; replicates averaged) | Hill-slope [2, 12] | AUC APP [2] | also measured
Cc1ccc(-c2noc([C@@H]3Cc4[nH]cnc4CN3C(=O)CCC(=O)O)n2)cc1 [CBK288958] | 57.4 | 3.2 | 3.16 | 600.0 | -0.00263 | 662.9 | activity at 10 µM [1, 5]: 50.2%; activity at 10 µM [1, 6]: 49.6%; activity at 10 µM [1, 7]: 49.6%; activity at 10 µM [1, 8]: 49.6%; activity at 25 µM [1, 9]: 32.2%; activity at 25 µM [1, 10]: 32.2%; activity [1, 11]: 87.5%; remaining activity at 10 µM [2]: 115%; remaining activity at 25 µM [2]: 129%; remaining activity at […] [2]: 119%
Cc1[nH]c2cccc(C(=O)N3CCCCC3CCNC(=O)c3ccccc3)c2c1C (centres unmarked) [CBK285976] |  | 3.5 | 3.16 | 532.0 | -2.25e-11 | 774.2 | IC50 ([1]; Homo sapiens, HEK-293T, 14p Notch assay DR, averaged when replicate measurements were available, read-out: averaged IC50s): 3.2 µM; IC50 ([1]; Homo sapiens, HEK-293T, 14p Notch assay DR, bottom constrained to Emax of positive control RO4929097, read-out: approximated IC50): 3 µM; IC50 ([1]; Homo sapiens, HEK-293T, 14p Notch assay DR, log10 value, bottom constrained to Emax of positive control RO4929097, read-out: approximated LogIC50 (converted)): 3.16 µM; activity at 10 µM [1, 5]: 37.7%; activity at 10 µM [1, 6]: 54.9%; activity at 10 µM [1, 7]: 54.9%; activity at 10 µM [1, 8]: 54.9%; activity at 25 µM [1, 9]: 38.3%; activity at 25 µM [1, 10]: 38.3%; activity [1, 11]: 100%; Hill-slope ([2]; 14p APP assay DR, bottom constrained to Emax of positive control CB-103): 0.344; curve fit information [2, 12]: IC50 indeterminate; remaining activity at 10 µM [2]: 145%; remaining activity at 25 µM [2]: 135%; remaining activity at […] [2]: 126%
COc1cc(-c2cn3ccnc3c(Nc3ccccc3)n2)cc(OC)c1OC [CBK066200] | 65.6 | 36 | 39.8 | 329.0 | -8.75e-10 | 496.5 | curve fit information [2, 12]: IC50 indeterminate
COc1cc(Nc2nc(-c3cccc(NC(C)=O)c3)cn3ccnc23)cc(OC)c1OC [CBK038093] | 21.1 | 5.6 | 5.01 | 304.0 | 0.0389 | 493.6 | activity at 10 µM [1, 5]: 46.2%; activity at 10 µM [1, 6]: 56.1%; activity at 10 µM [1, 7]: 56.1%; activity at 10 µM [1, 8]: 56.1%; activity at 25 µM [1, 9]: 41.5%; activity at 25 µM [1, 10]: 41.5%; activity [1, 11]: 96.6%; remaining activity at 10 µM [2]: 180%; remaining activity at 25 µM [2]: 242%; remaining activity at […] [2]: 132%
NC(=O)c1c(NC(=O)NC2CCCCC2)sc2c1CCCC2 [CBK431895] | 87.8 |  |  | 341.0 | -0.00462 | 411.0 | IC50 [1, 13]: 33.5 µM
Cc1ccccc1CN1CCC2(CC1)OCCc1c2n(C)c2ccccc12 [CBK040366] | 104.0 |  |  | 632.0 | 4.29e-13 | 658.0 | approximated IC50, Notch reporter assay ([1]; 14-point dose-response, Fig. 4): Indeterminate; curve fit information [2, 12]: IC50 indeterminate
CCOc1ccccc1-c1ccccc1NC(=O)c1ccc2c(c1)ncn2C1CC1 [CBK285808] | 26.5 | 5.1 | 5.01 | 300.0 | 0.0761 | 538.6 | activity at 10 µM [1, 5]: 35.1%; activity at 10 µM [1, 6]: 64.7%; activity at 10 µM [1, 7]: 64.7%; activity at 10 µM [1, 8]: 64.7%; activity at 25 µM [1, 9]: 45.7%; activity at 25 µM [1, 10]: 45.7%; activity [1, 11]: 102%; remaining activity at 10 µM [2]: 165%; remaining activity at 25 µM [2]: 197%; remaining activity at […] [2]: 113%
c1ccc(Nc2nc(-c3ccc(Oc4ccccc4)cc3)cn3ccnc23)cc1 [CBK066406] | 88.8 |  |  | 367.0 | 0.00761 | 491.7 | 
CC(=O)N1CCc2sccc2C1c1ccccc1NC(=O)c1ccco1 (centres unmarked) [CBK286436] | 99.7 |  |  | 629.0 |  | 642.7 | curve fit information [2, 12]: IC50 indeterminate
Cc1cc(O)n(-c2nc3ccccc3s2)n1 [CBK007453] | 95.0 | > 40 | > 40 | 628.0 | -0.00928 | 674.5 | IC50 [1, 13]: > 40 µM
CC(C)C(=O)Nc1sc2c(c1C(=O)NCc1cccnc1)CCC2 [CBK306144] | ~ 92,84 |  |  | 357.0 | -0.0106 | 480.2 | approximated IC50, Notch reporter assay ([1]; 14-point dose-response, Fig. 4): Indeterminate
Cc1ccccc1CN1CCC2(CC1)OCCc1c2[nH]c2ccc(Br)cc12 [CBK040353] | 48.2 | 1.7 | 1.58 | 584.0 | 0.0279 | 724.9 | IC50 [1, 13]: 1.8 µM
CCOC(=O)c1c(NC(=O)NCc2cccnc2)sc2c1CCC2 [CBK307585] | 71.6 |  |  | 338.0 | -0.6 | 444.5 | IC50 [1, 13]: 6.6 µM
C[C@H](NC(=O)[C@@H](O)c1cc(F)cc(F)c1)C(=O)N[C@@H]1C(=O)N(C)c2ccccc2-c2ccccc21 [LY-411575, reference compound] | 46.0 and 46.9 |  |  | 373.0 |  | 428.9 | reporter signal in % of DMSO ([1]; 10 µM): 46%; AUC 9p Notch reporter assay [1, 14]: 1.91E+02; IC50 ([1]; 14-point, unit inferred, replicates averaged, read-out: approxiated IC50s 14p Notch reporter assay): 0.00088 µM; Hill-slope ([1]; 14p Notch assay DR, Notch inhibitor controls, no bottom constraint named): -1.3; approximated LogIC50 [M] ([1]; 14p Notch assay DR, log10 value, Notch inhibitor controls, no bottom constraint named): -9.0 M; Hill-Slope 14p Notch reporter assay ([1]; 14p dose response): -1.3; IC50 ([1]; 14p dose response, single replicates, read-out: approximated IC50s 14p Notch reporter assay): 0.00086 µM and 0.0009 µM; AUC 14p Notch reporter assay [1, 15]: 3.73E+02; 14p Notch reporter assay averaged IC50s (log) ([1]; 14p dose response, log10 of averaged IC50): -9.1; Notch assay [1]: highest potency; also recorded: highest activity; Hill-Slope 9p APP counter assay averaged ([2]; 9p dose response): -1.0; AUC 9p APP-counter assay [2, 14]: 1.95E+02; Bottom (Emax) ([2]; 14p APP assay DR, Emax indicated independent from assay constraints): 44.6 and 46.0; AUC. 14p APP-counter assay [2, 15]: 4.29E+02; APP assay [2]: highest potency
COc1ccc(-c2cn3ccnc3c(Nc3ccccc3)n2)cc1 [CBK066257] | 91.1 |  |  | 403.0 | -3.32e-11 | 515.8 | curve fit information [2, 12]: IC50 indeterminate
COc1cc(Nc2cncc(-c3cccc(NC(C)=O)c3)n2)cc(OC)c1OC [CBK065162] | 40.8 | 27 | 25.1 | 335.0 | 0.0468 | 573.8 | 
CC(C)[C@H](O)C(=O)N[C@@H](C)C(=O)N[C@@H]1C(=O)N(C)CCc2ccccc21 [LY-450139, Semagacestat, reference compound] |  |  |  |  |  |  | reporter signal in % of DMSO ([1]; 10 µM): 52%; Notch assay [1]: active, potency n.d.; APP assay [2]: active, potency n.d.
Cc1ccccc1C(=O)NC(=S)Nc1sc2c(c1C(N)=O)CCC2 [CBK262107] | 90.8 |  |  | 379.0 | 0.0876 | 533.6 | IC50 [1, 13]: > 40 µM
Cc1ccc2cc(C(=O)NC(C)c3cnn(C)c3C)[nH]c2c1 (centres unmarked) [CBK246728] |  | > 5 | > 5 | 605.0 |  | 720.8 | IC50 [1, 13]: > 5 µM; curve fit information [2, 12]: IC50 indeterminate
COc1cc(Nc2cncc(-c3cccc(N(C)C)c3)n2)cc(OC)c1OC [CBK065722] | 82.6 | > 40 | > 40 | 354.0 | -0.00462 | 501.6 | 
CC1=C(C(=O)OC2CCCCC2)C(c2ccc([N+](=O)[O-])cc2)C2=C(CC(C)(C)CC2=O)N1 (centres unmarked) [FLI-06, reference compound] |  |  |  |  |  |  | reporter signal in % of DMSO ([1]; 10 µM): 62%; Notch assay [1]: active, potency n.d.; APP assay [2]: active, potency n.d.
